The CheMixHub ionic liquid set

Assay: xn = mol fraction of the nth substance listed

CS(C)=O + COCCCC[n+]1ccn(C)c1.C[C@@H](O)[C@H](N)C(=O)[O-]
100 kPa, x2 = 0
Conditions | viscosity [mPa·s]
288.15 K | 2.47
293.15 K | 2.21
298.15 K | 1.99
303.15 K | 1.81
308.15 K | 1.65
313.15 K | 1.51
318.15 K | 1.39

CS(C)=O + COCCCC[n+]1ccn(C)c1.NCC(=O)[O-]
Conditions | viscosity [mPa·s]
308.15 K, 100 kPa, x2 = 0 | 1.65

CCCC[n+]1ccn(C)c1.[Br-] + COCCO
viscosity [mPa·s], 100 kPa
Conditions | 298.15 K | 303.15 K | 308.15 K | 313.15 K
x1 = 0.4 | – | – | 43.9 | 28
x1 = 0.5 | – | 101 | – | 40.3
x1 = 0.7002 | 350 | – | – | 75

COS(=O)(=O)[O-].Cn1cc[n+](C)c1 + COCCO
viscosity [mPa·s], 101 kPa
Conditions | x1 = 0.0007603 | x1 = 0.001899 | x1 = 0.003034 | x1 = 0.004168 | x1 = 0.005298 | x1 = 0.006426
293.15 K | 2.01 | 2.03 | 2.05 | 2.07 | 2.09 | 2.11
303.15 K | 1.4 | 1.42 | 1.44 | 1.46 | 1.48 | 1.5
313.15 K | 0.97 | 0.99 | 1.01 | 1.03 | 1.05 | 1.07

CCCC[P+](CC)(CC)CC.Cc1ncc([N+](=O)[O-])[n-]1 + COCCOCCOCCOCCOC
100 kPa
Conditions | viscosity [mPa·s]
278.15 K, x2 = 0.048 | 1540
283.15 K, x2 = 0.102 | 631
283.15 K, x2 = 0.401 | 99
283.15 K, x2 = 0.501 | 57
298.15 K, x2 = 0.102 | 208
298.15 K, x2 = 0.201 | 130
308.15 K, x2 = 0.048 | 159
313.15 K, x2 = 0.102 | 90

CCCn1cc[n+](C)c1C.O=[N+]([O-])c1cn[n-]c1 + COCCOCCOCCOCCOC
100 kPa
Conditions | viscosity [mPa·s]
278.15 K, x2 = 0.399 | 252
283.15 K, x2 = 0.1 | 1670
283.15 K, x2 = 0.201 | 743
283.15 K, x2 = 0.499 | 88
288.15 K, x2 = 0.1 | 929
288.15 K, x2 = 0.201 | 449
298.15 K, x2 = 0.399 | 62
313.15 K, x2 = 0.201 | 76

CS(C)=O + COCCOCCn1cc[n+](CCC#N)c1.O=S(=O)([N-]S(=O)(=O)C(F)(F)F)C(F)(F)F
101.3 kPa, x2 = 0
Conditions | electrical conductivity [S/m]
293.15 K | 0.000587
303.15 K | 0.000881
313.15 K | 0.00118
323.15 K | 0.00148

CCCC[N+](CCCC)(CCCC)CCCC.[Cl-] + CSCC[C@H](N)C(=O)O
101 kPa
Conditions | electrical conductivity, x2 = 0.08333 [S/m] | electrical conductivity, x2 = 0.09091 [S/m] | electrical conductivity, x2 = 0.1 [S/m] | viscosity, x2 = 0.08333 [mPa·s] | viscosity, x2 = 0.09091 [mPa·s] | viscosity, x2 = 0.1 [mPa·s]
303.15 K | 0.0061 | 0.0165 | 0.0113 | 2200 | 2300 | 2400
313.15 K | 0.016 | 0.026 | 0.022 | 1400 | 1570 | 1560
323.15 K | 0.0259 | 0.0418 | 0.0313 | 415 | 530 | 480
333.15 K | 0.0749 | 0.0929 | 0.0837 | 221 | 295 | 290
343.15 K | 0.107 | 0.129 | 0.12 | 119 | 157 | 148
353.15 K | 0.14 | 0.17 | 0.15 | 70 | 94 | 87
